Test results reported in EP4745135A1 (Gluetacs Therapeutics (Shanghai) Co., Ltd., priority 2023, dated 2025).

What was measured:
[1] = molecular target: T1, human Cereblon WT GST-tagged protein (Homo sapiens, UniProt Q96SW2); assay: CRBN-binding affinity, HTRF (CEREBLON BINDING kit); settings: for inhibition at 0.5 µM: read-out: Inhibition Rate at 0.5 µM (%); for inhibition at 2 µM: read-out: Inhibition Rate at 2 µM (%)
T1 construct: purchased CISBIO 64BDCRBNPEH

[2] = molecular target: T2, IKZF3 (Homo sapiens, UniProt Q96SW2+Q9UKT9); assay: Western blot, degradation of substrate protein in hPBMCs; type: cell-based; settings: 24 hours treatment, compounds at 50 nM and 500 nM (concentration behind the class not stated)
T2 construct: effects of the compounds of the present disclosure on the expression of target proteins in cells; endogenous in cells; host or cells: human PBMCs (Milecell Biotechnologies)
T2 sequence (Q9UKT9 whole entry): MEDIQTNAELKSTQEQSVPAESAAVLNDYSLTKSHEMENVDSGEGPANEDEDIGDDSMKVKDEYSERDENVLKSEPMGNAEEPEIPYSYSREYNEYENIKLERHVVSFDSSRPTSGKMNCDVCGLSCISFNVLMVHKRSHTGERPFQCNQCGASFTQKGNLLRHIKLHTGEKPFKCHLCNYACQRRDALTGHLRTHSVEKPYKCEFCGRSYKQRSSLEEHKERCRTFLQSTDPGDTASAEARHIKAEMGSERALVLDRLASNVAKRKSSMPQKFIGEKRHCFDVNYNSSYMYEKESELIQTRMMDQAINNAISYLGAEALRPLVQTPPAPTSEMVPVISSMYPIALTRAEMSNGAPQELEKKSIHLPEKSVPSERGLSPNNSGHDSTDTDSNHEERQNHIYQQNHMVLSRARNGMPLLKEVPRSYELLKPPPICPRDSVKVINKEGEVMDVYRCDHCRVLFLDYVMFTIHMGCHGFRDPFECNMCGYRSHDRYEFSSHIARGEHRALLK
T2 sequence (Q96SW2 whole entry): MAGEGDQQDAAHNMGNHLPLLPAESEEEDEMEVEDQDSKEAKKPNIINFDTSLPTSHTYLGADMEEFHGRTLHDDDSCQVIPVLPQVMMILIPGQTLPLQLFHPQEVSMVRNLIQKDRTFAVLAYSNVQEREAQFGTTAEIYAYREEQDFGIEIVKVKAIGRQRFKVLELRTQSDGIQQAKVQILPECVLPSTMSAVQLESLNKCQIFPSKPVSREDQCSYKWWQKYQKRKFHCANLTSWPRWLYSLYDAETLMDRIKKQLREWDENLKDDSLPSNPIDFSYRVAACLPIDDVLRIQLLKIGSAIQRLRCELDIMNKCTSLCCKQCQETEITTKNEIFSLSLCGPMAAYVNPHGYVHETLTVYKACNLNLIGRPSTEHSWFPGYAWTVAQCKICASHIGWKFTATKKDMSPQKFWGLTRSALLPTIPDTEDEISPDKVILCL
T2 sequence (Q16531 whole entry partner): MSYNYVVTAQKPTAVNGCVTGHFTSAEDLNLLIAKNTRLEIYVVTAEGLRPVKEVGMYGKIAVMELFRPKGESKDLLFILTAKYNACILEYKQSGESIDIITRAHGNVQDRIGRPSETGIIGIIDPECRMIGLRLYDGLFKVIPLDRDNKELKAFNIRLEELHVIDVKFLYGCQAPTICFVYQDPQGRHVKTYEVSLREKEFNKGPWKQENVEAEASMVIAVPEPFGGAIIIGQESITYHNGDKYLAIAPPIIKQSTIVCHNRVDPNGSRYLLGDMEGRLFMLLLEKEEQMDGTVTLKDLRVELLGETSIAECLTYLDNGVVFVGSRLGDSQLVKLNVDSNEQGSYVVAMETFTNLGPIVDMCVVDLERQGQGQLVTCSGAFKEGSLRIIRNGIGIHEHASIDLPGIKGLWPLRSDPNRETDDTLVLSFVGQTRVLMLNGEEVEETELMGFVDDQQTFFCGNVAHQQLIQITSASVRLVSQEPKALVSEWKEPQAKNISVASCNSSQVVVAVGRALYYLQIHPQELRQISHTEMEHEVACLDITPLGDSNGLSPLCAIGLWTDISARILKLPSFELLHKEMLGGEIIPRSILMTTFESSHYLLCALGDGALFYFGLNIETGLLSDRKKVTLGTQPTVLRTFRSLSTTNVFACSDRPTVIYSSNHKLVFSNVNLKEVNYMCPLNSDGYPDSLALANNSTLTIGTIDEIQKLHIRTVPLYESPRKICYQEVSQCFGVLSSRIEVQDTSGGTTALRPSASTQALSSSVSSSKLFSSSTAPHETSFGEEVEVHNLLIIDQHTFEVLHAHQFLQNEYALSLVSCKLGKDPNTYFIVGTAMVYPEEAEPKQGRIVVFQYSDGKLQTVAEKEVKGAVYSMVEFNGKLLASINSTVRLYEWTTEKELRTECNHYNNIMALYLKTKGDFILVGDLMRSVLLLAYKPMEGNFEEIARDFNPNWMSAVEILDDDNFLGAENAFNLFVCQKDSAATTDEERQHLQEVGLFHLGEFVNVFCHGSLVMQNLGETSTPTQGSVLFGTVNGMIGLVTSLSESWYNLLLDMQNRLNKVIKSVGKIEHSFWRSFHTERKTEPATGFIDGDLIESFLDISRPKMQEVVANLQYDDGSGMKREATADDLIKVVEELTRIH

[3] = molecular target: T3, WEE1 (Homo sapiens, UniProt P30291+Q96SW2); assay: as above; type: cell-based; settings: 24 hours treatment, compounds at 50 nM and 500 nM (concentration behind the class not stated)
T3 construct: effects of the compounds of the present disclosure on the expression of target proteins in cells; endogenous in cells; host or cells: human PBMCs (Milecell Biotechnologies)
T3 sequence (P30291 whole entry): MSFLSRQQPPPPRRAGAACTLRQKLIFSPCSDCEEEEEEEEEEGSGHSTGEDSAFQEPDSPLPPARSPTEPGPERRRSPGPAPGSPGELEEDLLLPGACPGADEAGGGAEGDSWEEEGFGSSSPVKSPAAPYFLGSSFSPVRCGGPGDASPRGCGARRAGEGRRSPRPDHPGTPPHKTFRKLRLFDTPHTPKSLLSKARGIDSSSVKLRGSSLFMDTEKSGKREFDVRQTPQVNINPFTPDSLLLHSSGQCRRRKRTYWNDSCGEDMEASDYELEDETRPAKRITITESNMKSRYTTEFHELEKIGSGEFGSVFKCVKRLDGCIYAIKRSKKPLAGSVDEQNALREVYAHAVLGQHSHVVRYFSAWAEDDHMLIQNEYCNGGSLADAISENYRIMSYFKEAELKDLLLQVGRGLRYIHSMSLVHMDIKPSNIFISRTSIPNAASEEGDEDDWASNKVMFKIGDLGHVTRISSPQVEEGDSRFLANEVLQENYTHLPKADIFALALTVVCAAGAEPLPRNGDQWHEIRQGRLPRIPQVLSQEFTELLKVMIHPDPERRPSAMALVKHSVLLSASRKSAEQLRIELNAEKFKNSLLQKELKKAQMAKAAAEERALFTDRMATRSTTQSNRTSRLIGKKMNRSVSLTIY
T3 sequence (Q96SW2 whole entry): as the sequence (Q96SW2 whole entry) above
T3 sequence (Q16531 whole entry partner): as the sequence (Q16531 whole entry partner) above

[4] = molecular target: T4, IKZF1 (Homo sapiens, UniProt Q13422+Q96SW2); assay: as above; type: cell-based; settings: 24 hours treatment, compounds at 50 nM and 500 nM (concentration behind the class not stated)
T4 construct: effects of the compounds of the present disclosure on the expression of target proteins in cells; endogenous in cells; host or cells: human PBMCs (Milecell Biotechnologies)
T4 sequence (Q13422 whole entry): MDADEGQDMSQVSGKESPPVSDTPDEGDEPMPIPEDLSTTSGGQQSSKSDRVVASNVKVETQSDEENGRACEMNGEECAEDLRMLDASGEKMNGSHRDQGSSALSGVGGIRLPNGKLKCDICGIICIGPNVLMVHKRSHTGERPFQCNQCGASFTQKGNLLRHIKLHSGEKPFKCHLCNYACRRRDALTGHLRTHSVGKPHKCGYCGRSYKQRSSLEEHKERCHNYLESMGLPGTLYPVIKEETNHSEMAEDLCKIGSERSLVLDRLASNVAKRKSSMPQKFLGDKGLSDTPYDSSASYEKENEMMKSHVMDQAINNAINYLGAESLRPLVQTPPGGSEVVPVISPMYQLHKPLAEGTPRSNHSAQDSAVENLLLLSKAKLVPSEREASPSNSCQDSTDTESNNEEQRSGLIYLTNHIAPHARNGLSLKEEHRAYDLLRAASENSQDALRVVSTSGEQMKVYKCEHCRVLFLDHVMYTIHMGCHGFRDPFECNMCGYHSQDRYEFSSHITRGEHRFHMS
T4 sequence (Q96SW2 whole entry): as the sequence (Q96SW2 whole entry) above
T4 sequence (Q16531 whole entry partner): as the sequence (Q16531 whole entry partner) above

[5] = molecular target: T5, CK1α (Homo sapiens, UniProt P48729+Q96SW2); assay: as above; type: cell-based; settings: 24 hours treatment, compounds at 50 nM and 500 nM (concentration behind the class not stated)
T5 construct: effects of the compounds of the present disclosure on the expression of target proteins in cells; endogenous in cells; host or cells: human PBMCs (Milecell Biotechnologies)
T5 sequence (P48729 whole entry): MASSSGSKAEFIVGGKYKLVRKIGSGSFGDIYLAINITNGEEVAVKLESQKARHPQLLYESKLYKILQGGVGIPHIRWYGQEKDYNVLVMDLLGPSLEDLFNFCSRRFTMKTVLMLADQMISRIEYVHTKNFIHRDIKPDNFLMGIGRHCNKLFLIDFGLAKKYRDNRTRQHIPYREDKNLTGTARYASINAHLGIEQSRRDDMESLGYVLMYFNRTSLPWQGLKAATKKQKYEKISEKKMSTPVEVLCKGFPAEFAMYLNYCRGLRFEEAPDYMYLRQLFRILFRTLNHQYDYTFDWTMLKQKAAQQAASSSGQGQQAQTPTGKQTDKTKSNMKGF
T5 sequence (Q96SW2 whole entry): as the sequence (Q96SW2 whole entry) above
T5 sequence (Q16531 whole entry partner): as the sequence (Q16531 whole entry partner) above

[6] = molecular target: T6, IKZF2 (Homo sapiens, UniProt Q96SW2+Q9UKS7); assay: as above; type: cell-based; settings: 24 hours treatment, compounds at 50 nM and 500 nM (concentration behind the class not stated)
T6 construct: effects of the compounds of the present disclosure on the expression of target proteins in cells; endogenous in cells; host or cells: human PBMCs (Milecell Biotechnologies)
T6 sequence (Q9UKS7 whole entry): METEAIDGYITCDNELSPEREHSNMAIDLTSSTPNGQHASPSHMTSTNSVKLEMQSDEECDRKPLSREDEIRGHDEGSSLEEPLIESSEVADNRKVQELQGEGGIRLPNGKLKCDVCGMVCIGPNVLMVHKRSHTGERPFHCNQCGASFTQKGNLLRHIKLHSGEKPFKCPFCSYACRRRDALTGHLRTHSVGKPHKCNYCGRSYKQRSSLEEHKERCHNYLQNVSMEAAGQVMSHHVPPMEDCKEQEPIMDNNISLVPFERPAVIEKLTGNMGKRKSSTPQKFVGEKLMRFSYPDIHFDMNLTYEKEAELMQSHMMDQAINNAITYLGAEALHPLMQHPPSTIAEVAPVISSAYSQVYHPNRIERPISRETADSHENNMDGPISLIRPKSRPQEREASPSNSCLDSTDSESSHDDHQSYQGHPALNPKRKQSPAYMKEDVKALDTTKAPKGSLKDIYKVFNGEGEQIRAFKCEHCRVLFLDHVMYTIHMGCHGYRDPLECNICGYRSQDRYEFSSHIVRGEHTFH
T6 sequence (Q96SW2 whole entry): as the sequence (Q96SW2 whole entry) above
T6 sequence (Q16531 whole entry partner): as the sequence (Q16531 whole entry partner) above

[7] = system: GSPT1; assay: as above; type: cell-based, Human; settings: 24 hours treatment, compounds at 50 nM and 500 nM (concentration behind the class not stated)

T1 sequence (Q96SW2 whole entry): as the sequence (Q96SW2 whole entry) above

Row | Compound | inhibition at 0.5 µM [1] [%] | inhibition at 2 µM [1] [%] | IKZF3 substrate protein remaining % [2] | Wee1 substrate protein remaining % [3] | IKZF 1 substrate protein remaining % [4] | CK1α substrate protein remaining % [5] | IKZF2 substrate protein remaining % [6] | GSPT1 substrate protein remaining % [7]
1 | CC1(C)CCC(CN2CC3CC(C2)N3Cc2ccc3c(c2)CN(C2CCC(=O)NC2=O)C3=S)=C(c2ccc(Cl)cc2)C1 (stereo not shown) [GT-08160, 3-(5-((3-((4'-chloro-5,5-dimethyl-3,4,5,6-tetrahydro-[1,1'-biphenyl]-2-yl)methyl)-3,6-diazabicyclo[3.1.1]heptan-6-yl)methyl)-1-thioxoisoindolin-2-yl)piperidine-2,6-dione] | 53 to 60 | 80 to 100 | A (0% ≤ substrate protein remaining % ≤ 80%) | A (0% ≤ substrate protein remaining % ≤ 80%) | B (80%< substrate protein remaining %≤ 100%) | B (80%< substrate protein remaining %≤ 100%) | A (0% ≤ substrate protein remaining % ≤ 80%) | A (0% ≤ substrate protein remaining % ≤ 80%)
2 | CC1(C)CCC(CN2C3CC2CN(Cc2ccc4c(c2)CN(C2CCC(=O)NC2=O)C4=S)C3)=C(c2ccc(Cl)cc2)C1 (stereo not shown) [GT-08161, 3-(5-((6-((4'-chloro-5,5-dimethyl-3,4,5,6-tetrahydro-[1,1'-biphenyl]-2-yl)methyl)-3,6-diazabicyclo[3.1.1]heptan-3-yl)methyl)-1-thioxoisoindolin-2-yl)piperidine-2,6-dione] | 40 to 53 | 80 to 100 | A (0% ≤ substrate protein remaining % ≤ 80%) | A (0% ≤ substrate protein remaining % ≤ 80%) | B (80%< substrate protein remaining %≤ 100%) | B (80%< substrate protein remaining %≤ 100%) | A (0% ≤ substrate protein remaining % ≤ 80%) | A (0% ≤ substrate protein remaining % ≤ 80%)
3 | CC1(C)CCC(CN2C3CCC2CN(Cc2ccc4c(c2)CN(C2CCC(=O)NC2=O)C4=S)C3)=C(c2ccc(Cl)cc2)C1 (stereo not shown) [GT-08162, 3-(5-((8-((4'-chloro-5,5-dimethyl-3,4,5,6-tetrahydro-[1,1'-biphenyl]-2-yl)methyl)-3,8-diazabicyclo[3.2.1]octan-3-yl)methyl)-1-thioxoisoindolin-2-yl)piperidine-2,6-dione] | 30 to 40 | 60 to 80 | B (80%< substrate protein remaining %≤ 100%) | A (0% ≤ substrate protein remaining % ≤ 80%) | B (80%< substrate protein remaining %≤ 100%) | B (80%< substrate protein remaining %≤ 100%) | B (80%< substrate protein remaining %≤ 100%) | B (80%< substrate protein remaining %≤ 100%)
4 | CC1(C)CCC(CN2CC3CCC(C2)N3Cc2ccc3c(c2)CN(C2CCC(=O)NC2=O)C3=S)=C(c2ccc(Cl)cc2)C1 (stereo not shown) [GT-08163, 3-(5-((3-((4'-chloro-5,5-dimethyl-3,4,5,6-tetrahydro-[1,1'-biphenyl]-2-yl)methyl)-3,8-diazabicyclo[3.2.1]octan-8-yl)methyl)-1-thioxoisoindolin-2-yl)piperidine-2,6-dione] | 53 to 60 | 60 to 80 | B (80%< substrate protein remaining %≤ 100%) | A (0% ≤ substrate protein remaining % ≤ 80%) | A (0% ≤ substrate protein remaining % ≤ 80%) | B (80%< substrate protein remaining %≤ 100%) | B (80%< substrate protein remaining %≤ 100%) | A (0% ≤ substrate protein remaining % ≤ 80%)
5 | O=C1CCC(N2Cc3cc(CN4CCN(CC5=C(c6ccc(F)cc6)CCCC5)CC4)ccc3C2=S)C(=O)N1 (stereo not shown) [GT-08164, 3-(5-((4-((4'-fluoro-3,4,5,6-tetrahydro-[1,1'-biphenyl]-2-yl)methyl)piperazin-1-yl)methyl)-1-thioxoisoindolin-2-yl)piperidine-2,6-dione] | 40 to 53 | 80 to 100 | A (0% ≤ substrate protein remaining % ≤ 80%) | A (0% ≤ substrate protein remaining % ≤ 80%) | A (0% ≤ substrate protein remaining % ≤ 80%) | B (80%< substrate protein remaining %≤ 100%) | A (0% ≤ substrate protein remaining % ≤ 80%) | A (0% ≤ substrate protein remaining % ≤ 80%)
6 | CC1(C)CC(c2ccc(Cl)cc2)=C(CN2CCN(Cc3ccc4c(c3)CN(C3CCC(=O)NC3=O)C4=S)CC2)CO1 (stereo not shown) [GT-08167, 3-(5-((4-((4-(4-chlorophenyl)-6,6-dimethyl-5,6-dihydro-2H-pyran-3-yl)methyl)piperazin-1-yl)methyl)-1-thioxoisoindolin-2-yl)piperidine-2,6-dione] | 40 to 53 | 80 to 100 | A (0% ≤ substrate protein remaining % ≤ 80%) | A (0% ≤ substrate protein remaining % ≤ 80%) | B (80%< substrate protein remaining %≤ 100%) | B (80%< substrate protein remaining %≤ 100%) | A (0% ≤ substrate protein remaining % ≤ 80%) | A (0% ≤ substrate protein remaining % ≤ 80%)
7 | O=C1CCC(N2Cc3cc(CN4CCN(c5cccs5)CC4)ccc3C2=S)C(=O)N1 (stereo not shown) [GT-08168, 3-(5-((4-(thiophen-2-yl)piperazin-1-yl)methyl)-1-thioxoisoindolin-2-yl)piperidine-2,6-dione] | 80 to 100 | 80 to 100 | B (80%< substrate protein remaining %≤ 100%) | A (0% ≤ substrate protein remaining % ≤ 80%) | B (80%< substrate protein remaining %≤ 100%) | B (80%< substrate protein remaining %≤ 100%) | B (80%< substrate protein remaining %≤ 100%) | A (0% ≤ substrate protein remaining % ≤ 80%)
8 | O=C1CCC(N2Cc3cc(CN4CCN(c5ccsc5)CC4)ccc3C2=S)C(=O)N1 (stereo not shown) [GT-08169, 3-(5-((4-(thiophen-3-yl)piperazin-1-yl)methyl)-1-thioxoisoindolin-2-yl)piperidine-2,6-dione] | 80 to 100 | 80 to 100 | B (80%< substrate protein remaining %≤ 100%) | A (0% ≤ substrate protein remaining % ≤ 80%) | B (80%< substrate protein remaining %≤ 100%) | B (80%< substrate protein remaining %≤ 100%) | B (80%< substrate protein remaining %≤ 100%) | A (0% ≤ substrate protein remaining % ≤ 80%)
